Activity calls are given as the source filed them. The rule behind the calls is not given here.
Legend:
THP1-Dual KO-STING = assay: Activation of STING-mediated immune response in human THP1-Dual KO-STING cells assessed as cGAMP-induced ISRE activation at 1 uM preincubated with conditioned medium containing 36 hrs compound treated with human MDA-MB-231 cells and measured after 24 hrs by quanti-luc luciferase assay; format: cell-based; settings: filed as activator, time 60.0 hrs
CT26 [1] = assay: Antitumor activity against mouse CT26 cells allografted in female BALB/c mouse assessed as increase in M1-type macrophages in tumor tissue at 200 mg/kg QD, ip measured every 2 days for 12 days by immunohistochemical analysis; format: functional, organism-based; settings: time 12.0 day
[2] = target: T1, Ectonucleotide pyrophosphatase/phosphodiesterase family member 1 (Homo sapiens, UniProt P22413); assay: Inhibition of ENPP1 in human MDA-MB-231 cells using p-NPh-5TMP as substrate at pH 9.5 measured after 60 mins; format: cell-based
T1 sequence (P22413 whole entry): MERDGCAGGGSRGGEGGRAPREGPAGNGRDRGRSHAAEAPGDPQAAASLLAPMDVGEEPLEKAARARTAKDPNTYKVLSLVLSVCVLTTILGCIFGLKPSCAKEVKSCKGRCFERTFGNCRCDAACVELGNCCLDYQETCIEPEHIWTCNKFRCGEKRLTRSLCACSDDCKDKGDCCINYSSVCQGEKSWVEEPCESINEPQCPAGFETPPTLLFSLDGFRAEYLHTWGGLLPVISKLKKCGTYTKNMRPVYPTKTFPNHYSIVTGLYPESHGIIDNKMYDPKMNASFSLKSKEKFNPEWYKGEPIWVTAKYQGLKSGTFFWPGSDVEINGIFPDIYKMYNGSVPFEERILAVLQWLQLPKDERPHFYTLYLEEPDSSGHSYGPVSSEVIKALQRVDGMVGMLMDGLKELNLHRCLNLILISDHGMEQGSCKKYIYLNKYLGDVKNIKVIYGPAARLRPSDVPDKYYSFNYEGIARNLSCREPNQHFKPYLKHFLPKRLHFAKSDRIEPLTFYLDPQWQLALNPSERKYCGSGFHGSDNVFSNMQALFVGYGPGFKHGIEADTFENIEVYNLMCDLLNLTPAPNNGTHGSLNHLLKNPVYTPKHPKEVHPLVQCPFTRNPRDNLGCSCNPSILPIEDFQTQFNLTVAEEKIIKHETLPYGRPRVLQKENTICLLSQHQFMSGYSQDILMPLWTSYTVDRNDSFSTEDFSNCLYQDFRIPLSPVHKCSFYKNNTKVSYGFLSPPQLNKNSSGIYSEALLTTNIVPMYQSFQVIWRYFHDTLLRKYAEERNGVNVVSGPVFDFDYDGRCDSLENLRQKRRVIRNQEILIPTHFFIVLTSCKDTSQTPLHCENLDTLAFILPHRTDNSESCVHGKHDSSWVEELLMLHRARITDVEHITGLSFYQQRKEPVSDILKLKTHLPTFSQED

THP-1 [3] = assay: Activation of STING signalling pathway in human THP-1 cells assessed as increase in IRF3 phosphorylation at 300 nM preincubated with compound for 2 hrs followed by cGAMP addition and measured after 3 hrs by Western blot analysis; format: cell-based; settings: filed as activator, time 5.0 hrs
[4] = MRT (0 to t) in Sprague-Dawley rat at 10 mg/kg, iv measured upto 24 hrs by LC-MS/MS analysis; format: ADME, organism-based; settings: in vivo
THP1-Dual = assay: Cytotoxicity against human THP1-Dual cells assessed as effect on cell viability at 3 to 1000 nM followed by addition of conditioned medium containing 36 hrs compound pretreated human MDA-MB-231 cells measured after 24 hrs by celltiter-glo assay; format: functional, cell-based; settings: dose 3-1000 nM, time 60.0 hrs
Homo sapiens [5] = organism: Homo sapiens; assay: Inhibition of TLK (unknown origin) at 1 uM by KINOMEscan assay
CT26 [6] = assay: Antitumor activity against mouse CT26 cells allografted in female BALB/c mouse assessed as increase in M1-type macrophages in tumor tissue at 200 mg/kg QD, ip measured every 2 days for 12 days by immunofluorescence analysis; format: functional, organism-based; settings: time 12.0 day
[7] = Toxicity in female BALB/c mouse allografted with mouse CT26 cells assessed as change in body weight at 200 mg/kg QD, ip measured every 2 days for 12 days; format: organism-based; settings: in vivo, 288 h, time 12 day
CT26 [8] = assay: Antitumor activity against mouse CT26 cells allografted in female BALB/c mouse assessed as tumor growth inhibition at 200 mg/kg QD, ip measured every 2 days for 12 days in presence of anti-PD-L1 antibody relative to control; format: functional; settings: CT26, 288 h, time 12 day, read-out: TGI
[9] = Apparent permeability across basal to apical side in human Caco-2 cells at 10 uM by LC-MS/MS analysis; format: ADME, cell-based
[10] = Toxicity in female BALB/c mouse allografted with mouse CT26 cells assessed as change in body weight at 200 mg/kg QD, ip in presence of anti-PD-L1 antibody measured every 2 days for 12 days; format: organism-based; settings: in vivo, 288 h, time 12 day
Homo sapiens [11] = organism: Homo sapiens; assay: Inhibition of STE (unknown origin) at 1 uM by KINOMEscan assay
CT26 [12] = assay: Antitumor activity against mouse CT26 cells allografted in female BALB/c mouse assessed as increase in M1-type macrophages in tumor tissue at 200 mg/kg QD, ip in presence of anti-PD-L1 antibody measured every 2 days for 12 days by immunohistochemical analysis; format: functional, organism-based; settings: time 12.0 day
[13] = target: Voltage-gated inwardly rectifying potassium channel KCNH2 (Homo sapiens, UniProt Q12809); assay: Inhibition of hERG expressed in CHO cells by QPatch automated patch-clamp assay; format: toxicity, cell-based
Voltage-gated inwardly rectifying potassium channel KCNH2, sequence (Q12809 whole entry): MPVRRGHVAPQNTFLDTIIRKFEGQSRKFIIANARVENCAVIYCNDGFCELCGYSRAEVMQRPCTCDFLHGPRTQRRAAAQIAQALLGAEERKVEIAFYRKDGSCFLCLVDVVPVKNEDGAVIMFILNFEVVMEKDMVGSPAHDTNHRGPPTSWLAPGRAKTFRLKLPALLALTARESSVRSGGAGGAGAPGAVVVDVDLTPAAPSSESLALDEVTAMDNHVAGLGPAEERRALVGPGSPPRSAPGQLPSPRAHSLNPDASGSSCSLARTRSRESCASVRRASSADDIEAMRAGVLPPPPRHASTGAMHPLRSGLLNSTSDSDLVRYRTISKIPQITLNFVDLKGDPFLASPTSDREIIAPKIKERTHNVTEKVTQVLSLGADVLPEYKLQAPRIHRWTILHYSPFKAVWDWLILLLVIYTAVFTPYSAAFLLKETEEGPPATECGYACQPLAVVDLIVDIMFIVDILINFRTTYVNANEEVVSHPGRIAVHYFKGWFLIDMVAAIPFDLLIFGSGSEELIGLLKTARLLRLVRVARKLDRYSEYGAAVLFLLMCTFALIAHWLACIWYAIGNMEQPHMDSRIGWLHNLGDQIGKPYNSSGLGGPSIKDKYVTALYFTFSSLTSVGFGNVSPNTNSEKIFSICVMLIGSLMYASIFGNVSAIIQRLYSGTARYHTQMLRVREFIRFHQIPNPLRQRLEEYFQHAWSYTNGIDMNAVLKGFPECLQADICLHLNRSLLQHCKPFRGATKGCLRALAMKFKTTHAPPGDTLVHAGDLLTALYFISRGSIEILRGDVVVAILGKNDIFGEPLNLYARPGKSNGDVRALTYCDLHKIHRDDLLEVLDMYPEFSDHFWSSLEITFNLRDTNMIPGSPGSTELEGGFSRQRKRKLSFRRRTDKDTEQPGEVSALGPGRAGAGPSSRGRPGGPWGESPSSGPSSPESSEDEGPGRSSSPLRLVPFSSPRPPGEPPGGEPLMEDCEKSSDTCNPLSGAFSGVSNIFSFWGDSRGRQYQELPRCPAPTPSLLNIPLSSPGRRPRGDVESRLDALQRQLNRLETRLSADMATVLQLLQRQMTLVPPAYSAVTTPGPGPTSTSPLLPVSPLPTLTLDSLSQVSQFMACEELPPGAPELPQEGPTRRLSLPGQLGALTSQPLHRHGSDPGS

[14] = Efflux ratio of apparent permeability from basolateral to apical side over apical to basolateral side in human Caco-2 cells at 10 uM by LC-MS/MS analysis; format: ADME, cell-based
THP-1 [15] = assay: Activation of STING signalling pathway in human THP-1 cells assessed as increase in TBK1 phosphorylation at 300 nM preincubated with compound for 2 hrs followed by cGAMP addition and measured after 3 hrs by Western blot analysis; format: cell-based; settings: filed as activator, time 5.0 hrs

IC50 [2]: 1.53 nM
MRT last at 24 h [4]: 39.7 min
inhibition (Homo sapiens [5]): inactive
Papp B→A at 10 µM [9]: 2.13 ×10⁻⁶ cm/s
inhibition (Homo sapiens [11]): inactive
efflux ratio at 10 µM [14]: 20.1
SMILES: COc1cccc2c(N3CCC(O)(CNS(N)(=O)=O)CC3)ncnc12
Activity (THP1-Dual KO-STING): Active
Activity (CT26 [1]): Active
Activity (THP-1 [3]): Active
Activity (THP1-Dual): Active
Activity (CT26 [6]): Active
Activity [7]: Non-toxic
inhibition in vivo at 200 mg/kg (CT26 [8]): 64.6%
Activity [10]: Non-toxic
Activity (CT26 [12]): Active
IC50 [13]: > 40000 nM
Activity (THP-1 [15]): Active

— ChEMBL document CHEMBL6114998, “Design, Synthesis, and Pharmacological Evaluation of Quinazoline and Quinoline Derivatives as Potent ENPP1 Inhibitors for Cancer Immunotherapy” (J Med Chem, 2025)
